Assay results taken from patent publication US5952321A, “Substituted azetidinones as anti-inflammatory and antidegenerative agents” (Merck & Co., Inc., priority 1996, dated 1999).
Structures can show the parent of a compound that is named as a salt. Where two headings read alike, the source gives them in different places.

Molecular target: T1, Human Polymorphonuclear Leukocyte Elastase (Homo sapiens, UniProt P08246)
T1 sequence (P08246 30-267): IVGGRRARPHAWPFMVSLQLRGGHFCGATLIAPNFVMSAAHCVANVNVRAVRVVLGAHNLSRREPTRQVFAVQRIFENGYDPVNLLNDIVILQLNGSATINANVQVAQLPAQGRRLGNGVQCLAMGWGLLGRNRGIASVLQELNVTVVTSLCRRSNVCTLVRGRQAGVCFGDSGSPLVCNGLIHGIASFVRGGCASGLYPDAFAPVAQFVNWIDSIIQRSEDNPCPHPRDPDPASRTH
Assay: Inhibition of human polymorphonuclear leukocyte elastase via hydrolysis of Boc-AAPAN or Boc-AAPVN
Type: biochemical
Details: second order rate constant for inactivation of the enzyme, read-out: Kobs /[I]
Protocol: Enzyme Assays for the Inhibition of Human Polymorphonuclear Leukocyte Elastase Via Hydrolysis of N-t-Boc-alanyl-alanyl-prolylalanine-p-nitroanilide (Boc-AAPAN) or […] (Boc-AAPVN) Reagent:
0.05M TES (N-tris[hydroxymethyl]methyl-2-amino-ethanesulfonic acid) Buffer, pH 7.5.
0.2 mM Boc-AAPAN or Boc-AAPVN.
To prepare substrate, the solid was first dissolved in 10.0 ml DMSO. Buffer at pH 7.5 was then added to a final volume of 100 ml.
Crude extract of human polymorphonuclear leukocytes (PMN) containing elastase activity.
Inhibitors (azetidinones) to be tested dissolved in DMSO just before use.
To 1.0 ml of 0.2 mM Boc-AAPAN in a cuvette, 0.01-0.1 ml of DMSO with or without inhibitor was added. After mixing, a measurement was taken at 410 mμ to detect any spontaneous hydrolysis due to presence of test compound. 0.05 Milliliters of PMN extract was then added and the ΔOD/min at 410 mμ was measured and recorded. Beckman model 35 spectrophotometer was used.
Results in Tables I to III were reported as ID50, effective dosage in micrograms per milliliter (μg/ml) for 50% inhibition of the enzyme activity 2 minutes after zero time.
Results were also expressed as Ki, the micromolar concentration of the inhibitor (μM) giving 50% of the control enzyme activity; or as ^k obs/I which is the second order rate constant in per mole per second for inactivation of the enzyme.
The elastase activity in the crude PMN extract may vary from one preparation to another. A control of each new batch is run, and the volume added in the assay procedure is adjusted according to activity.

| kinact/KI (pH 7.5, Table I) [M⁻¹ s⁻¹] | kinact/KI (pH 7.5, Table III) [M⁻¹ s⁻¹] | SMILES |
| --- | --- | --- |
| 600000 | – | CCC[C@@H](NC(=O)N1C(=O)C(CC)(CC)[C@@H]1Oc1ccc(CN(C)CCOCC)cc1)c1ccc(C)cc1 [R4=Me; R5=CH2 CH2 OEt; R6=H, (4S)-3,3-Diethyl-1-[(R)-α-n-propyl-(4-methyl)benzylaminocarbonyl]-4-[(4-(2-ethoxyethyl)methylaminomethyl)phenoxy]azetidin-2-one] |
| 550000 | – | CCC[C@@H](NC(=O)N1C(=O)C(CC)(CC)[C@@H]1Oc1ccc(C(CC)N(C)CCOC)cc1)c1ccc(C)cc1 (some centres unmarked) [R4=Me; R5=CH2 CH2 OMe; R6=Et] |
| 1.3e+06 | – | CCCCN(C)C(=O)OCCN(C)Cc1ccc(O[C@@H]2N(C(=O)N[C@H](CCC)c3ccc(C)cc3)C(=O)C2(CC)CC)cc1 [R4=Me; R5=CH2 CH2 OCON(Me)n-Bu; R6=H] |
| 850000 | – | CCC[C@@H](NC(=O)N1C(=O)C(CC)(CC)[C@@H]1Oc1ccc(CN(CC)CCNC(C)=O)cc1)c1ccc(C)cc1 [R4=Et; R5=CH2 CH2 NHAc; R6=H] |
| 1.9e+06 | – | CCC[C@@H](NC(=O)N1C(=O)C(CC)(CC)[C@@H]1Oc1ccc(CN(C)CCOCCOC)cc1)c1ccc(C)cc1 [R4=Me; R5=CH2 CH2 OCH2 CH2 OMe; R6=H] |
| 1.4e+06 | – | CCC[C@@H](NC(=O)N1C(=O)C(CC)(CC)[C@@H]1Oc1ccc(CN(C)CC[S+]([O-])CC)cc1)c1ccc(C)cc1 (stereo partly drawn) [R4=Me; R5=CH2 CH2 SOEt; R6=H, (4S)-3,3-Diethyl-1-[(R)-α-n-propyl-(4-methyl)benzylaminocarbonyl]-4-[(4-((2-thioethyl)ethyl)methylaminomethyl)phenoxy]azetidin-2-one, S-oxide] |
| 1.85e+06 | – | CCC[C@@H](NC(=O)N1C(=O)C(CC)(CC)[C@@H]1Oc1ccc(CN(C)CCOC(=O)NC(C)C)cc1)c1ccc(C)cc1 [R4=Me; R5=CH2 CH2 OCONH(i-Pr); R6=H] |
| 440000 | – | CCC[C@@H](NC(=O)N1C(=O)C(CC)(CC)[C@@H]1Oc1ccc(CN(C)CCC(=O)O)cc1)c1ccc(C)cc1 [R4=Me; R5=CH2 CH2 CO2 H--TFA; R6=H] |
| 230000 | – | CCC[C@@H](NC(=O)N1C(=O)C(CC)(CC)[C@@H]1Oc1ccc(CN(C)CCOC(=O)C(C)(C)C)cc1)c1ccc(C)cc1 [R4=Me; R5=CH2 CH2 OCOCMe3; R6=H] |
| 850000 | – | CCC[C@@H](NC(=O)N1C(=O)C(CC)(CC)[C@@H]1Oc1ccc(CN(C)C(C)C)cc1)c1ccc(C)cc1 [R4=Me; R5=i-Pr; R6=H] |
| 560000 | – | CCC[C@@H](NC(=O)N1C(=O)C(CC)(CC)[C@@H]1Oc1ccc(CN(C)C)cc1)c1ccc(C)cc1 [R4=Me; R5=Me; R6=H] |
| 1.23e+06 | – | CCC[C@@H](NC(=O)N1C(=O)C(CC)(CC)[C@@H]1Oc1ccc(CN(C)CCOC(=O)N(CC)CC)cc1)c1ccc(C)cc1 [R4=Me; R5=CH2 CH2 OCONEt2; R6=H] |
| 1.5e+06 | – | CCC[C@@H](NC(=O)N1C(=O)C(CC)(CC)[C@@H]1Oc1ccc(CN(C)CCCOC)cc1)c1ccc(C)cc1 [R4=Me; R5=CH2 CH2 CH2 OMe; R6=H] |
| 650000 | – | CCC[C@@H](NC(=O)N1C(=O)C(CC)(CC)[C@@H]1Oc1ccc(CN(C)CCN(C)C(C)=O)cc1)c1ccc(C)cc1 [R4=Me; R5=CH2 CH2 N(Me)Ac; R6=H] |

The remaining lines, values behind:

| SMILES | kinact/KI (pH 7.5, Table I) [M⁻¹ s⁻¹] | kinact/KI (pH 7.5, Table III) [M⁻¹ s⁻¹] |
| --- | --- | --- |
| CCC[C@@H](NC(=O)N1C(=O)C(CC)(CC)[C@@H]1Oc1ccc(CNC(=O)Cc2cccnc2)cc1)c1ccc(C)cc1 [R4=H; R5=COCH2-3-pyridyl; R6=H, (4S)-3,3-Diethyl-1-[(R)-α-(n-propyl)-4-(methyl)benzylaminocarbonyl]-4-[(4-((3-pyridyl)methylcarbonyl)aminomethyl)phenoxy]azetidin-2-one] | 1.25e+06 | – |
| CCC[C@@H](NC(=O)N1C(=O)C(CC)(CC)[C@@H]1Oc1ccc(C(C)N(CC)CCOC)cc1)c1ccc(C)cc1 (some centres unmarked) [R4=Et; R5=CH2 CH2 OMe; R6=Me] | 600000 | – |
| CCC[C@@H](NC(=O)N1C(=O)C(CC)(CC)[C@@H]1Oc1ccc(CN2CCN(C(=O)N(CC)CC)CC2)cc1)c1ccc(C)cc1 | 1.4e+06 | – |
| CCC[C@@H](NC(=O)N1C(=O)C(CC)(CC)[C@@H]1Oc1ccc(C(COC)N(C)C)cc1)c1ccc2c(c1)OCO2 (mixture of isomers) [3,3-Diethyl-1-[(R)-α-(n-propyl)-(3,4-dioxomethylene)benzylaminocarbonyl]-4-(S)-[4-{1-(RS)-(N,N-dimethylamino)-2-methoxyethyl}phenoxy]azetidin-2-one] | – | 1.9e+06 |
| CCC[C@@H](NC(=O)N1C(=O)C(CC)(CC)[C@@H]1Oc1ccc(CN2C(C)CCC2C)cc1)c1ccc(C)cc1 (some centres unmarked) [R4+R5=--CHMeCH2 CH2 CHMe--; R6=H] | 670000 | – |
| CCC[C@@H](NC(=O)N1C(=O)C(CC)(CC)[C@@H]1Oc1ccc(C(C)NCCOC)cc1)c1ccc(C)cc1 (some centres unmarked) [R4=H; R5=CH2 CH2 OMe; R6=Me] | 680000 | – |
| CCC[C@@H](NC(=O)N1C(=O)C(CC)(CC)[C@@H]1Oc1ccc(CNC(=O)CCN(CC)CC)cc1)c1ccc(C)cc1 [R4=H; R5=COCH2 CH2 N Et2; R6=H] | 850000 | – |
| CCC[C@@H](NC(=O)N1C(=O)C(CC)(CC)[C@@H]1Oc1ccc(C(COC)N(C)C(C)C)cc1)c1ccc(C)cc1 (some centres unmarked) [R4=Me; R5=i-Pr; R6=CH2 OMe] | 800000 | – |
| CCC[C@@H](NC(=O)N1C(=O)C(CC)(CC)[C@@H]1Oc1ccc(CN(CC)CCOC)c(C)c1)c1ccc(C)cc1 | – | 450000 |
| CCC[C@@H](NC(=O)N1C(=O)C(CC)(CC)[C@@H]1Oc1ccc(C2CCCN2CCOC)cc1)c1ccc(C)cc1 (mixture of isomers) [R4=CH2 CH2 OMe; R5+R6=--CH2 CH2 CH2 --, 3,3-Diethyl-1-[(R)-α-(n-propyl)-4-(methyl)benzylaminocarbonyl]-4-(S)-[4-{2-(RS)-(N-(2-methoxyethyl)pyrrolidino)}phenoxy]azetidin-2-one] | 940000 | – |
| CCC[C@@H](NC(=O)N1C(=O)C(CC)(CC)[C@@H]1Oc1ccc(C(C)N2CCOCC2)cc1)c1ccc(C)cc1 (some centres unmarked) [R4+R5=--CH2 CH2 OCH2 CH2 --; R6=Me] | 460000 | – |
| CCC[C@@H](NC(=O)N1C(=O)C(CC)(CC)[C@@H]1Oc1ccc(CN2CCN(C(C)C)CC2)cc1)c1ccc(C)cc1 [R4+R5=--CH2 CH2 N(i-Pr)CH2 CH2 --; R6=H] | 1.2e+06 | – |
| CCC[C@@H](NC(=O)N1C(=O)C(CC)(CC)[C@@H]1Oc1ccc(CN(CC)C(C)COC)c(OC)c1)c1ccc(C)cc1 (some centres unmarked) | – | 1.3e+06 |
| CCC[C@@H](NC(=O)N1C(=O)C(CC)(CC)[C@@H]1Oc1ccc(CN2CCN(C(=O)N(C)C)CC2)cc1)c1ccc(C)cc1 [(4S)-3,3-Diethyl-1-[(R)-α-n-propyl-(4-methyl)benzylaminocarbonyl]-4-[(4-((4-dimethylaminocarbonyl)piperazin-1-yl)methyl)phenoxy]azetidin-2-one] | 1.55e+06 | – |
| CCC[C@@H](NC(=O)N1C(=O)C(CC)(CC)[C@@H]1Oc1ccc(CN2CCN(c3ncccn3)CC2)cc1)c1ccc(C)cc1 | 715000 | – |
| CCC[C@@H](NC(=O)N1C(=O)C(CC)(CC)[C@@H]1Oc1ccc(CNC(=O)NC)cc1)c1ccc(C)cc1 [R4=H; R5=CONHMe; R6=H, (4S)-3,3-Diethyl-1-[(R)-α-(n-propyl)-4-(methyl)benzylaminocarbonyl]-4-[(4-((N-methyl)aminocarbonyl)aminomethyl)phenoxy]azetidin-2-one] | 1.1e+06 | – |
| CCC[C@@H](NC(=O)N1C(=O)C(CC)(CC)[C@@H]1Oc1ccc(Cn2ccnc2CC)cc1)c1ccc(C)cc1 [R4+R5=--CHCHNCEt--; R6=H] | 2.25e+06 | – |
| CCC[C@@H](NC(=O)N1C(=O)C(CC)(CC)[C@@H]1Oc1ccc(CNC(=O)NCc2ccccc2)cc1)c1ccc(C)cc1 [R4=H; R5=CONH Bn; R6=H, (4S)-3,3-Diethyl-1-[(R)-α-(n-propyl)-4-(methyl)benzylaminocarbonyl]-4-[(4-((N-benzyl)aminocarbonyl)aminomethyl)phenoxy]azetidin-2-one] | 1.6e+06 | – |
| CCC[C@@H](NC(=O)N1C(=O)C(CC)(CC)[C@@H]1Oc1ccc(CN2CCN(C(C)=O)CC2)cc1)c1ccc(C)cc1 [R4+R5=--CH2 CH2 N(Ac)CH2 CH2 --; R6=H] | 950000 | – |
| CCC[C@@H](NC(=O)N1C(=O)C(CC)(CC)[C@@H]1Oc1ccc(C(C)N(C)CCOCCOC)cc1)c1ccc(C)cc1 (some centres unmarked) [R4=Me; R5=CH2 CH2 OCH2 CH2 OMe; R6=Me] | 825000 | – |
| CCC[C@@H](NC(=O)N1C(=O)C(CC)(CC)[C@@H]1Oc1ccc(CN2CCC(OC)C2)cc1)c1ccc(C)cc1 (some centres unmarked) [R4+R5=--CH2 CH2 CH(OMe)CH2 --; R6=H] | 765000 | – |
| CCC[C@@H](NC(=O)N1C(=O)C(CC)(CC)[C@@H]1Oc1ccc(CN2CCC(O)CC2)cc1)c1ccc(C)cc1 [R4+R5=--CH2 CH2 CH(OH)CH2 CH2 --; R6=H] | 1.15e+06 | – |
| CCC[C@@H](NC(=O)N1C(=O)C(CC)(CC)[C@@H]1Oc1ccc(C(C)N2CCC(OC)C2)cc1)c1ccc(C)cc1 (some centres unmarked) [R4+R5=--CH2 CH2 CH(OMe)CH2 --; R6=Me] | 1e+06 | – |
| CCC[C@@H](NC(=O)N1C(=O)C(CC)(CC)[C@@H]1Oc1ccc(CN(C)C(C)COC)c(OC)c1)c1ccc(C)cc1 (some centres unmarked) | – | 1.65e+06 |
